Values of other authors, collected in patent US6469022B1, “Method, compositions and kits for increasing the oral bioavailability of pharmaceutical agents” (Smith Kline Beecham, Corporation, priority 1997, dated 2002).
“Also recorded” adds a separate entry of the source. Blank lines part the entries; values can stand above or below the molecule they belong to.

Experiments:
P-glycoprotein = P-glycoprotein (Homo sapiens, UniProt P08183)
[1] = in vivo
[2] = WO97/15269, Broder et al
tumour = conditions: up to 160 mg/kg/day, Stuffness et al.
[3] = oral administration
metastatic breast cancer = conditions: taxane-failure patients with metastatic breast cancer; continuous 96-hour infusion every three weeks

Sequence of P-glycoprotein (P08183 whole entry): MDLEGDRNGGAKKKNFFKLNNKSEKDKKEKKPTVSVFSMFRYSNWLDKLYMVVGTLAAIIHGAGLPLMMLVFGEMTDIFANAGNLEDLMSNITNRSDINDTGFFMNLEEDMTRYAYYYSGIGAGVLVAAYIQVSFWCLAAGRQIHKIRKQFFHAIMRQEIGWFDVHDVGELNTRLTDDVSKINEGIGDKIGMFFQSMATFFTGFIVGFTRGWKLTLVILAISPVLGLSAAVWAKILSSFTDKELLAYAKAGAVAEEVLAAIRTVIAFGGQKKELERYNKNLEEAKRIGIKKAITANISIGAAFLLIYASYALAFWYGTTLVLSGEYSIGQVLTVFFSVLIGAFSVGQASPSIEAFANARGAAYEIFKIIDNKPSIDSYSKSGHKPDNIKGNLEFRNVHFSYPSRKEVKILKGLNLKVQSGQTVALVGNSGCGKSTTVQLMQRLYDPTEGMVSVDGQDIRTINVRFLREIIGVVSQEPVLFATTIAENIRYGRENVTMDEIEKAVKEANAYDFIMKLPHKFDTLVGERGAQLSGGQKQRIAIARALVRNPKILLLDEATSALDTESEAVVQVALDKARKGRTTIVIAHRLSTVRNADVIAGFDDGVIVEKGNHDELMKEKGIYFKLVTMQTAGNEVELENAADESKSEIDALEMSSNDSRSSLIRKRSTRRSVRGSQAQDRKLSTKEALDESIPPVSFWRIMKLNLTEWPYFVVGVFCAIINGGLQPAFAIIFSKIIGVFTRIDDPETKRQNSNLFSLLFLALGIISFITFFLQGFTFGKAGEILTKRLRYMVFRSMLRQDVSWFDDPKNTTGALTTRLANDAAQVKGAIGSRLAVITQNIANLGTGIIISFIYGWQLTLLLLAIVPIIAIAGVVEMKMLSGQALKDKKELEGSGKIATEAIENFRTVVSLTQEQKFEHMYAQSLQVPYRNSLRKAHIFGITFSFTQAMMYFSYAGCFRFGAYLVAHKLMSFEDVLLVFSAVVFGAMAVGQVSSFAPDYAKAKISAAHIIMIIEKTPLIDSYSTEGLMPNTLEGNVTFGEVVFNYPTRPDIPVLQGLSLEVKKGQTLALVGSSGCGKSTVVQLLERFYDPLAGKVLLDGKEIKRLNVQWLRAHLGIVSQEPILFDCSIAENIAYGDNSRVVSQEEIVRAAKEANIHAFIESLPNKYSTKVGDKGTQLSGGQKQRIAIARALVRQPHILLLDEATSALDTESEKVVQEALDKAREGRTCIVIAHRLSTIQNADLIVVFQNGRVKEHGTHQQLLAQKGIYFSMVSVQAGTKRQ

SMILES: COc1cc2c(cc1OC)CN(CCc1ccc(NC(=O)c3cccc4c(=O)c5cccc(OC)c5[nH]c34)cc1)CC2 [GF120918, 9,10-dihydro-5-methoxy-9oxo-N-[4-[2-(1,2,3,4-tetrahydro-6,7,-dimethoxy-2-isoquinolinyl)ethyl]phenyl]-4-acridinecarboxamide]
P-glycoprotein inhibition (P-glycoprotein): P-glycoprotein inhibitor
bioavailability across the gut [1]: very poor bioavailability

SMILES: CC(=O)O[C@H]1C(=O)[C@@]2(C)[C@H]([C@H](OC(=O)c3ccccc3)[C@]3(O)C[C@H](OC(=O)[C@H](O)[C@@H](NC(=O)c4ccccc4)c4ccccc4)C(C)=C1C3(C)C)[C@]1(OC(C)=O)CO[C@@H]1C[C@@H]2O [paclitaxel, 5β,20-epoxy-1,2α,4,7β,10β,13α-hexa-hydroxytax-11-en-9-one 4,10-diacetate 2-benzoate 13-ester with (2R,3S)-N-benzoyl-3-phenylisoserine]
antitumour activity on oral administration (tumour): no evidence of antitumour activity
level at which inhibition of tubulin disassembly occurs (tubulin): about 0.1 μM; also recorded: about 85 ng/ml
absorbed when administered orally [3]: less than 1%
level at which inhibition of protein isoprenylation occurs (protein isoprenylation): about 0.03 μM; also recorded: about 25 ng/ml
response rate (metastatic breast cancer): 27%

SMILES: CC(=O)[C@H]1CC[C@H]2[C@@H]3CCC4=CC(=O)CC[C@]4(C)[C@H]3CC[C@]12C [progesterone]
oral bioavailability-enhancing activity [2]: none

Now from value to molecule:

oral bioavailability-enhancing activity [2]: less enhancing activity
SMILES: OCCN(CCO)c1nc(N2CCCCC2)c2nc(N(CCO)CCO)nc(N3CCCCC3)c2n1 [dipyridamole]

oral bioavailability-enhancing activity [2]: significant
SMILES: CC(=O)N1CCN(c2ccc(OCC3COC(Cn4ccnc4)(c4ccc(Cl)cc4Cl)O3)cc2)CC1 (stereo not shown) [ketoconazole]
